Assay results as given in ChEMBL document CHEMBL1143097, “Allosteric inhibitors of Akt1 and Akt2: a naphthyridinone with efficacy in an A2780 tumor xenograft model” (Bioorg Med Chem Lett, 2008).
The source made the active and inactive calls. The rule behind the calls is not given here.

Columns and labels:
[1] = Inhibition of PKC
[2] = Inhibition of SGK
[3] = target: T1, RAC-beta serine/threonine-protein kinase (Homo sapiens, UniProt P31751); experiment: Inhibition of Akt2 by cell-based assay
[4] = target: T2, RAC-alpha serine/threonine-protein kinase (Homo sapiens, UniProt P31749); experiment: Inhibition of Akt1 by cell-based assay
T2 sequence (P31749 whole entry): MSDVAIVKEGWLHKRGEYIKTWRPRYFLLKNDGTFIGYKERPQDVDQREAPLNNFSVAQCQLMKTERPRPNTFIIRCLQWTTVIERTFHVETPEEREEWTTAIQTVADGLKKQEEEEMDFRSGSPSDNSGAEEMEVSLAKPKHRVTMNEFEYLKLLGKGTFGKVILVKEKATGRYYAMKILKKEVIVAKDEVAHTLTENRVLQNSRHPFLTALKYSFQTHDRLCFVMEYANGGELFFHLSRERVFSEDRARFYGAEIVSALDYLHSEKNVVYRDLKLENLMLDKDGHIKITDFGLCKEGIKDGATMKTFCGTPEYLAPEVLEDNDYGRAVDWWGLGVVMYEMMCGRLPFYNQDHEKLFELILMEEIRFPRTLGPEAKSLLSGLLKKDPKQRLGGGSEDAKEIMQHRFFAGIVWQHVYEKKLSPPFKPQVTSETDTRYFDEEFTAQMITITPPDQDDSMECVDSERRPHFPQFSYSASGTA

[5] = target: T1, RAC-beta serine/threonine-protein kinase; experiment: Inhibition of Akt2
[6] = Inhibition of PKA
[7] = target: T2, RAC-alpha serine/threonine-protein kinase; experiment: Inhibition of Akt1
[8] = target: RAC-gamma serine/threonine-protein kinase (Homo sapiens, UniProt Q9Y243); experiment: Inhibition of Akt3
RAC-gamma serine/threonine-protein kinase, sequence (Q9Y243 whole entry): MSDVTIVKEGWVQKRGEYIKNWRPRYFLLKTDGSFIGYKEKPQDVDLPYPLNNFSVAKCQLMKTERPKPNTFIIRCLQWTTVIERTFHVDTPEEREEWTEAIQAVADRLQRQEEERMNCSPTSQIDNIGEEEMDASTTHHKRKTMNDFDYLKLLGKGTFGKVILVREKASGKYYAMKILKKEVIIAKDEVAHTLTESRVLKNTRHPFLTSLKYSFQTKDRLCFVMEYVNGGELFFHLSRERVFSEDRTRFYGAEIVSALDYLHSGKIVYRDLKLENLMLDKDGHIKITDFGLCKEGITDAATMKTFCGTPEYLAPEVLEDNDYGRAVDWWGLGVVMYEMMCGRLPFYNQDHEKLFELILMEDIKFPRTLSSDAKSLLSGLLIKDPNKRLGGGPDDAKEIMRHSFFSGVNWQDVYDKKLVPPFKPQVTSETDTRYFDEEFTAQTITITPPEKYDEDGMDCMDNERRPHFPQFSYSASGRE

[9] = Distribution coefficient, log D of the compound; type: physicochemical; details: octanol/water
[10] = tested on: Mus musculus; experiment: Inhibition of Akt2 in mouse lung at 50 mg/kg, ip administered three times a day after 10 hrs by IP kinase assay; type: functional; set-up: scale not given: the % may be the effect or the level left; details: route intraperitoneal
[11] = target: Voltage-gated inwardly rectifying potassium channel KCNH2 (Homo sapiens, UniProt Q12809); experiment: Inhibition of human ERG
Voltage-gated inwardly rectifying potassium channel KCNH2, sequence (Q12809 whole entry): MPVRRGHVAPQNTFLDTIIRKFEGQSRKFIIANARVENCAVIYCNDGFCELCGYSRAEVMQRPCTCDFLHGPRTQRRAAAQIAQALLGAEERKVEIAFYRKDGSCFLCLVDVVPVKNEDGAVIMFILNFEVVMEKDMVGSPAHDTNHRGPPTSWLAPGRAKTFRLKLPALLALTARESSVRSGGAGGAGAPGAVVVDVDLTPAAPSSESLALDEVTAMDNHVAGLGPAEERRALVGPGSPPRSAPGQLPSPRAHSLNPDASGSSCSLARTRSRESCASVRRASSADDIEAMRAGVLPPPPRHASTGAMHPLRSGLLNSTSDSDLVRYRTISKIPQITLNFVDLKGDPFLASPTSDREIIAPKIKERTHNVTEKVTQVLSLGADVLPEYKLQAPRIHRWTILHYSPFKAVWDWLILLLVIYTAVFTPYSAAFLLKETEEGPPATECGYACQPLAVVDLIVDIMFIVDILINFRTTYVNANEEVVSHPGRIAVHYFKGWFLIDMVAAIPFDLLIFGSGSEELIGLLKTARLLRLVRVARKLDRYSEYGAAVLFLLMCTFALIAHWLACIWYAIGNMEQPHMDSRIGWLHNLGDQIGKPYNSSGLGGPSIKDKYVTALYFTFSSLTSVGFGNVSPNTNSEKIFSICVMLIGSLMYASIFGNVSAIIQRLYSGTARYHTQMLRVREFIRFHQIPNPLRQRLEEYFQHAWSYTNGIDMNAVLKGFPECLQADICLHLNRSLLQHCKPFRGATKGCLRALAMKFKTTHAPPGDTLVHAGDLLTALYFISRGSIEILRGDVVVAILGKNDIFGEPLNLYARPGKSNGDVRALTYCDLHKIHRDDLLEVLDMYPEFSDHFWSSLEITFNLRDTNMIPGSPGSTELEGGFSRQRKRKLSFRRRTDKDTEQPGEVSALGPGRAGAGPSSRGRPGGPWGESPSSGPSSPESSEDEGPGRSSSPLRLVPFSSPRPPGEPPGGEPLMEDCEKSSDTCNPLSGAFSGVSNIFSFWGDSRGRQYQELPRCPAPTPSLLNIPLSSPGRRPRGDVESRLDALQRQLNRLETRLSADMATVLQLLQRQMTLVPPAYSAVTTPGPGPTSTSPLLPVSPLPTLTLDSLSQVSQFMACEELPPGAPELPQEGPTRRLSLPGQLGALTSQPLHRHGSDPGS

[12] = Drug concentration in mouse blood at 50 mg/kg, ip administered three times a day after 16 hrs; type: ADME, organism-based; set-up: dose 50 mg/kg, route intraperitoneal; details: whole blood, read-out: Drug uptake
[13] = tested on: Mus musculus; experiment: Inhibition of AKT2 in A2780 cells xenografted mouse lung tissue at 50 mg/kg, twice daily after 2 hrs by IP kinase assay; type: functional; details: route intraperitoneal
[14] = tested on: Mus musculus; experiment: Inhibition of AKT1 in A2780 cells xenografted mouse lung tissue at 50 mg/kg, twice daily after 2 hrs by IP kinase assay; type: functional; details: route intraperitoneal
[15] = tested on: A2780; experiment: Antitumor activity in human A2780 cells xenografted mouse assessed as decrease in tumor weight at 50 mg/kg, sc administered three times a day twice a week for five cycles; type: functional, organism-based; set-up: dose 50 mg/kg
[16] = Clearance in rat; type: ADME, organism-based; details: in vivo
[17] = tested on: Mus musculus; experiment: Inhibition of AKT2 in A2780 cells xenografted mouse tumor tissue at 50 mg/kg, twice daily after 2 hrs by IP kinase assay; type: functional; details: route intraperitoneal
[18] = tested on: Mus musculus; experiment: Inhibition of AKT1 in A2780 cells xenografted mouse tumor tissue at 50 mg/kg, twice daily after 2 hrs by IP kinase assay; type: functional; details: route intraperitoneal
[19] = species: Homo sapiens; experiment: Protein binding in human plasma; details: read-out: PB (converted)
[20] = tested on: Mus musculus; experiment: Inhibition of Akt2 in mouse lung at 50 mg/kg, ip administered three times a day after 24 hrs by IP kinase assay; type: functional; set-up: scale not given: the % may be the effect or the level left; details: route intraperitoneal
[21] = Drug concentration in mouse blood at 50 mg/kg, ip administered three times a day after 24 hrs; type: ADME, organism-based; set-up: dose 50 mg/kg, route intraperitoneal; details: whole blood, read-out: Drug uptake
[22] = Partition coefficient, log P of the compound; type: physicochemical; details: octanol/water
[23] = tested on: Mus musculus; experiment: Inhibition of Akt1 in mouse lung at 50 mg/kg, ip administered three times a day after 24 hrs by IP kinase assay; type: functional; set-up: scale not given: the % may be the effect or the level left; details: route intraperitoneal
[24] = Drug concentration in mouse blood at 50 mg/kg, ip administered three times a day after 10 hrs; type: ADME, organism-based; set-up: dose 50 mg/kg, route intraperitoneal; details: whole blood, read-out: Drug uptake
[25] = tested on: Mus musculus; experiment: Inhibition of Akt1 in mouse lung at 50 mg/kg, ip administered three times a day after 16 hrs by IP kinase assay; type: functional; set-up: scale not given: the % may be the effect or the level left; details: route intraperitoneal
[26] = Half life in rat; type: ADME, organism-based; details: in vivo
[27] = tested on: Mus musculus; experiment: Inhibition of Akt2 in mouse lung at 50 mg/kg, ip administered three times a day after 16 hrs by IP kinase assay; type: functional; set-up: scale not given: the % may be the effect or the level left; details: route intraperitoneal
[28] = tested on: Mus musculus; experiment: Inhibition of Akt1 in mouse lung at 50 mg/kg, ip administered three times a day after 10 hrs by IP kinase assay; type: functional; set-up: scale not given: the % may be the effect or the level left; details: route intraperitoneal

T1 sequence (P31751 whole entry): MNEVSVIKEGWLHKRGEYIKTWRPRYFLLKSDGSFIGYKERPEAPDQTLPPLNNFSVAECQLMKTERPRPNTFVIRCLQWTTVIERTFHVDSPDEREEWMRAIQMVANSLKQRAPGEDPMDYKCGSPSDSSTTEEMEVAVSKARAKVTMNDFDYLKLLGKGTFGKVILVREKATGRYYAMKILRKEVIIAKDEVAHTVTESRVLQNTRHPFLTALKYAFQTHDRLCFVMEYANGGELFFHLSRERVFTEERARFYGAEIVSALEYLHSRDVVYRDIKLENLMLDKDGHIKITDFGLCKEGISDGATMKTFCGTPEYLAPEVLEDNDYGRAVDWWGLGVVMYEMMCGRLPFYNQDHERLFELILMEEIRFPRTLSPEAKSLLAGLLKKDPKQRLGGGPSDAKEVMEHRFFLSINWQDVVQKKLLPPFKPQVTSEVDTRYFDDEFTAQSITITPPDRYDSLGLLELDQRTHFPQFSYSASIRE

SMILES | IC50 [1] [µM] | IC50 [2] [µM] | IC50 [3] [µM] | IC50 [4] [µM] | IC50 [5] [µM] | IC50 [6] [µM] | IC50 [7] [µM] | other results
c1ccc(-c2cc3cccnc3nc2-c2ccc(CN3CCC(c4cc(-c5cccnc5)[nH]n4)CC3)cc2)cc1 | > 50 | > 50 |  |  | 0.9 | > 50 | 0.25 | 
c1ccc(-c2cc(C3CCN(Cc4ccc(-c5nc6ncccc6cc5-c5ccccc5)cc4)CC3)n[nH]2)cc1 | > 50 | > 50 |  |  | 1.6 | > 50 | 0.47 | 
c1ccc(-c2cc3cccnc3nc2-c2ccc(CN3CCC(c4cc(-c5ccncc5)[nH]n4)CC3)cc2)cc1 | > 50 | > 50 | 1.45 | 0.369 | 0.26 | > 50 | 0.12 | 
c1ccc(-c2nc3ccccc3nc2-c2ccc(CN3CCC(c4cc(-c5ccncc5)[nH]n4)CC3)cc2)cc1 |  |  |  |  | 1.07 |  | 0.075 | IC50 [8]: 11.3 µM; logD [9]: 2.71
CCN(CC)CCNC(=O)c1ccc2nc(-c3ccccc3)c(-c3ccc(CN4CCC(n5c(=O)[nH]c6ccccc65)CC4)cc3)nc2c1 |  |  | 0.73 | 0.527 |  |  |  | 
c1ccc(-c2cc3cccnc3nc2-c2ccc(CN3CCC(c4cc(-c5ccccn5)[nH]n4)CC3)cc2)cc1 | > 50 | > 50 | 0.995 | 0.149 | 0.28 | > 50 | 0.044 | 

More lines, main results first:

IC50 [1] [µM] | IC50 [2] [µM] | IC50 [3] [µM] | IC50 [4] [µM] | IC50 [5] [µM] | IC50 [6] [µM] | IC50 [7] [µM] | SMILES | other results
> 50 | > 50 | 2.68 | 0.021 | 0.21 | > 50 | 0.0074 | c1ccc(-c2cc3cnccc3nc2-c2ccc(CN3CCC(c4n[nH]c(-c5ccccn5)n4)CC3)cc2)cc1 | 
> 50 | > 50 | 0.981 | 0.031 | 0.16 | > 50 | 0.021 | c1ccc(-c2cc3ccncc3nc2-c2ccc(CN3CCC(c4n[nH]c(-c5ccccn5)n4)CC3)cc2)cc1 | 
> 50 | > 50 | 1.08 | 0.083 | 0.22 | > 50 | 0.045 | c1ccc(-c2cc3cccnc3nc2-c2ccc(CN3CCC(c4n[nH]c(-c5ccccn5)n4)CC3)cc2)cc1 | 
> 50 | > 50 | 0.613 | 0.132 | 0.083 | > 50 | 0.034 | O=c1ccc(-c2cc(C3CCN(Cc4ccc(-c5nc6ncccc6cc5-c5ccccc5)cc4)CC3)n[nH]2)c[nH]1 | 
> 50 | > 50 | 1.48 | 0.03 | 0.07 | > 50 | 0.0056 | c1ccc(-c2cc3ncccc3nc2-c2ccc(CN3CCC(c4n[nH]c(-c5ccccn5)n4)CC3)cc2)cc1 | 
> 50 | > 50 | 0.266 | 0.016 | 0.042 | > 50 | 0.0035 | O=C1N=CC=C2N=C(c3ccc(CN4CCC(c5n[nH]c(-c6ccccn6)n5)CC4)cc3)C(c3ccccc3)=CC12 (configuration not stated) | Activity [10]: 41%; IC50 [11]: 5.61 µM; concentration at 16 h [12]: 2600 nM; inhibition in vivo at 50 mg/kg [13]: 75%; IC50 [8]: 1.9 µM; inhibition in vivo at 50 mg/kg [14]: 80%; Activity [15]: Active; clearance [16]: 4.6 mL/min/kg; inhibition in vivo at 50 mg/kg [17]: 54%; inhibition in vivo at 50 mg/kg [18]: 95%; fraction unbound [19]: 0.027; Activity [20]: 91%; concentration at 24 h [21]: 700 nM; logP [22]: 3.51; Activity [23]: 100%; concentration at 10 h [24]: 13000 nM; Activity [25]: 62%; half-life [26]: 3.8 h; Activity [27]: 86%; Activity [28]: 21%
